Test results published in patent publication US12643912B2, “Macrocyclic compounds, a process for their preparation and pharmaceutical compositions containing them” (LES LABORATOIRES SERVIER, priority 2020, dated 2026).
Like-named read-outs stand apart in the source and are kept apart here.

Columns and labels:
[1] = system: Nrf2 (Keap1-NRF2 nuclear translocation); assay: U2OS translocation assay (PathHunter U2OS Keap1-NRF2 Nuclear Translocation Cell Line); format: cell-based
Method in brief: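 PathHunter U2OS line expressing Nrf2-enzyme-donor fusion and nuclear acceptor enzyme, 7 500 cells/well in Opti-MEM, 1% FBS. Compounds incubated 3 h at 37° C. Luminescence after 60 min with detection reagent, normalized between 1% DMSO and 10 μM andrographolide.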

[2] = molecular target: T1, Keap1 (A321-C624) (h) (Homo sapiens, UniProt Q14145); assay: Surface Plasmon Resonance binding assay to Kelch domain of KEAP1; details: Biacore T200, 25° C., immobilized His-Thromb-KEAP1(A321-C624), single cycle kinetics, KD=kd/ka from 1:1 fit; read-out: Keap1 (A321-C624) (h) direct/SPR (KD)
T1 construct: His-Thromb-KEAP1(A321-C624) acquired from Novalix (batch PU-P01) was immobilized covalently by amine coupling; His tag (N); thrombin cleavage site (Thromb) (N); purchased Novalix batch PU-P01
T1 sequence (Q14145 321-624): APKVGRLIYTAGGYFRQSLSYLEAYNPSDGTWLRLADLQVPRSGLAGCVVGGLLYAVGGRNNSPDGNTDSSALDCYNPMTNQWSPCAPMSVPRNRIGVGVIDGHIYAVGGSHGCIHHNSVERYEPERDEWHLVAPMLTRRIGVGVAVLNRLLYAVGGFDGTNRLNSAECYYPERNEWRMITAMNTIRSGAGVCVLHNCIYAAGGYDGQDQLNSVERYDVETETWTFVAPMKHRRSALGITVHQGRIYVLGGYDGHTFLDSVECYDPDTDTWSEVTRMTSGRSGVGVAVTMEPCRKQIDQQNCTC
Method in brief: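 His-Thromb-KEAP1(A321-C624) amine-coupled on CM5 chip to 1250 RU; amine blank reference. Run at 25° C in HEPES pH 7.4, 150 mM NaCl, 3 mM EDTA, 1 mM TCEP, 0.05% P20, 5% DMSO; 180 s association, 720 s dissociation, 50 μL/min. KD = kd/ka from 1:1 kinetic fit, double-referenced, DMSO solvent-corrected.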

[3] = Homo sapiens, U2OS, 3 h, read-out: CELLULAR U2OS EC50 (nM), U2OS Keap1-NRF2 nuclear translocation cells, 3 h incubation, luminescence, normalized between 1% DMSO and 10 μM andrographolide
[4] = read-out: CELLULAR U2OS EC50, U2OS Keap1-NRF2 nuclear translocation cells, 3 h incubation, luminescence, normalized between 1% DMSO and 10 μM andrographolide

Kd [2] [nM]	Structure (SMILES)	EC50 [1, 3] [nM]	EC50 [1, 4] [nM]
5.07	COc1ccc2cc1CN1Cc3cc(ccc3OS1(=O)=O)OCCOCCn1nnc3c(C)c(ccc31)C2CC(=O)O (single isomer, unassigned) [Example 59a, [4-Methoxy-32-methyl-28,28-dioxo-19,22,27-trioxa-28λ^6-thia-1,14,15,16-tetraazahexacyclo[21.5.3.1^3,70.1^9,130.0^12,160.0^26,30]tritriaconta-3(33),4,6,9(32),10,12,14,23,25,30-decaen-8-yl]acetic acid]	311	–
3	Cc1ccc2cc1CN1Cc3cc(ccc3OS1(=O)=O)OCc1ccccc1CCn1nnc3c(C)c(ccc31)C2CC(=O)O (single isomer, unassigned) [Example 62a, [4,36-Dimethyl-32,32-dioxo-26,31-dioxa-32λ^6-thia-1,14,15,16-tetraazaheptacyclo[25.5.3.1^3,70.1^9,130.0^12,160.0^19,240.0^30,34]heptatriaconta-3(37),4,6,9(36),10,12,14,19,21,23,27,29,34-tridecaen-8-yl]acetic acid]	177	–
4.39	Cc1ccc2cc1CN1Cc3cc(ccc3OS1(=O)=O)OCCSCCn1nnc3c(C)c(ccc31)C2CC(=O)O (single isomer, unassigned) [Example 63a, [4,32-Dimethyl-28,28-dioxo-22,27-dioxa-19,28λ^6-dithia-1,14,15,16-tetraazahexacyclo[21.5.3.1^3,70.1^9,130.0^12,160.0^26,30]tritriaconta-3(33),4,6,9(32),10,12,14,23,25,30-decaen-8-yl]acetic acid]	57.1	–
0.678	Cc1ccc2cc1CN1Cc3c(ccc(c3Cl)OCCCCn3nnc4c(C)c(ccc43)C2CC(=O)O)OS1(=O)=O (single isomer, unassigned) [Example 66a, [30-Chloro-4,31-dimethyl-27,27-dioxo-21,26-dioxa-27λ^6-thia-1,14,15,16-tetraazahexacyclo[20.5.3.1^3,70.1^9,130.0^12,160.0^25,29]dotriaconta-3(32),4,6,9(31),10,12,14,22,24,29-decaen-8-yl]acetic acid]	–	3.44
0.833	Cc1ccc2cc1CN1Cc3c(ccc(c3Cl)OCCCCn3nnc4c(C)c(ccc43)C2CC(=O)O)OS1(=O)=O (single isomer, unassigned) [Example 66b, [30-Chloro-4,31-dimethyl-27,27-dioxo-21,26-dioxa-27λ^6-thia-1,14,15,16-tetraazahexacyclo[20.5.3.1^3,70.1^9,130.0^12,160.0^25,29]dotriaconta-3(32),4,6,9(31),10,12,14,22,24,29-decaen-8-yl]acetic acid]	–	17.9
19.3	Cc1ccc2cc1CN1Cc3cc(ccc3OS1(=O)=O)Oc1ccccc1NCCCn1nnc3c(C)c(ccc31)C2CC(=O)O (single isomer, unassigned) [Example 71a, [4,37-Dimethyl-33,33-dioxo-27,32-dioxa-33λ^6-thia-1,14,15,16,20-pentaazaheptacyclo[26.5.3.1^3,70.1^9,130.0^12,160.0^21,260.0^31,35]octatriaconta-3(38),4,6,9(37),10,12,14,21,23,25,28,30,35-tridecaen-8-yl]acetic acid]	42	–
23.6	Cc1ccc2cc1CN1Cc3cc(ccc3OS1(=O)=O)OCCCCn1cc(nn1)C(=O)NC2CC(=O)O (single isomer, unassigned) [Example 72a, [4-Methyl-10,25,25-trioxo-19,24-dioxa-25λ^6-thia-1,9,12,13,14-pentaazapentacyclo[18.5.3.1^3,70.1^11,140.0^23,27]triaconta-3(30),4,6,11(29),12,20,22,27-octaen-8-yl]acetic acid]	> 3160	–
730	Cc1ccc2cc1CN1Cc3cc(ccc3OS1(=O)=O)OCCCCn1cc(nn1)C(=O)NC2CC(=O)O (single isomer, unassigned) [Example 72b, [4-Methyl-10,25,25-trioxo-19,24-dioxa-25λ^6-thia-1,9,12,13,14-pentaazapentacyclo[18.5.3.1^3,70.1^11,140.0^23,27]triaconta-3(30),4,6,11(29),12,20,22,27-octaen-8-yl]acetic acid]	–	> 3160
6.23	Cc1ccc2cc1CN1Cc3cc(ccc3OS1(=O)=O)OCCCCCOc1cc(c(C)c3nnn(C)c13)C2CC(=O)O (single isomer, unassigned) [Example 73a, [4,10,14-Trimethyl-29,29-dioxo-17,23,28-trioxa-29λ^6-thia-1,12,13,14-tetraazahexacyclo[22.5.3.1^3,70.1^9,160.0^11,150.0^27,31]tetratriaconta-3(34),4,6,9(33),10,12,15,24,26,31-decaen-8-yl]acetic acid]	–	63.4
17.6	Cc1ccc2cc1CN1Cc3cc(ccc3OS1(=O)=O)OCCCCCOc1cc(c(C)c3nnn(C)c13)C2CC(=O)O (single isomer, unassigned) [Example 73b, [4,10,14-Trimethyl-29,29-dioxo-17,23,28-trioxa-29λ^6-thia-1,12,13,14-tetraazahexacyclo[22.5.3.1^3,70.1^9,160.0^11,150.0^27,31]tetratriaconta-3(34),4,6,9(33),10,12,15,24,26,31-decaen-8-yl]acetic acid]	–	707
7.64	Cc1ccc2cc1[C@@H](C)N1Cc3cc(ccc3OS1(=O)=O)OCCCCn1nnc3c(C)c(ccc31)[C@@H]2CC(=O)O [Example 3a, [(2R,8R)-2,4,31-Trimethyl-27,27-dioxo-21,26-dioxa-27λ^6-thia-1,14,15,16-tetraazahexacyclo[20.5.3.1^3,70.1^9,130.0^12,160.0^25,29]dotriaconta-3(32),4,6,9(31),10,12,14,22,24,29-decaen-8-yl]acetic acid]	79.5	–
1.05	Cc1ccc2cc1[C@@H](C)N1Cc3cc(ccc3OS1(=O)=O)OCCCCn1nnc3c(C)c(ccc31)[C@H]2CC(=O)O [Example 3b, [(2R,8S)-2,4,31-trimethyl-27,27-dioxo-21,26-dioxa-27λ^6-thia-1,14,15,16-tetraazahexacyclo[20.5.3.1^3,70.1^9,130.0^12,160.0^25,29]dotriaconta-3(32),4,6,9(31),10,12,14,22,24,29-decaen-8-yl]acetic acid]	10.6	–
255	Cc1c2ccc3c1nnn3CCCCOc1ccc3c(c1)CN(Cc1cc(F)cc(c1)C2CC(=O)O)S(=O)(=O)O3 (stereo not drawn) [Example 4, [5-Fluoro-31-methyl-27,27-dioxo-21,26-dioxa-27λ^6-thia-1,14,15,16-tetraazahexacyclo[20.5.3.1^3,70.1^9,130.0^12,160.0^25,29]dotriaconta-3(32),4,6,9(31),10,12,14,22,24,29-decaen-8-yl]acetic acid]	3470	–
131	Cc1cc2cc(c1)C(CC(=O)O)c1ccc3c(nnn3CCCCOc3ccc4c(c3)CN(C2)S(=O)(=O)O4)c1C (stereo not drawn) [Example 5, [5,31-Dimethyl-27,27-dioxo-21,26-dioxa-27λ^6-thia-1,14,15,16-tetraazahexacyclo[20.5.3.1^3,70.1^9,130.0^12,160.0^25,29]dotriaconta-3(32),4,6,9(31),10,12,14,22,24,29-decaen-8-yl]acetic acid]	1810	–
33.7	Cc1c2ccc3c1nnn3CCCCOc1ccc3c(c1)CN(Cc1cccc(c1)C2CC(=O)O)S(=O)(=O)O3 (stereo not drawn) [Example 6, [31-Methyl-27,27-dioxo-21,26-dioxa-27λ^6-thia-1,14,15,16-tetraazahexacyclo[20.5.3.1^3,70.1^9,130.0^12,160.0^25,29]dotriaconta-3(32),4,6,9(31),10,12,14,22,24,29-decaen-8-yl]acetic acid]	1330	–
1.07	Cc1ccc2cc1CN1Cc3cc(ccc3OS1(=O)=O)OCCCCn1nnc3c(C)c(ccc31)[C@H]2CC(=O)O [Example 7a, [(8S)-4,31-Dimethyl-27,27-dioxo-21,26-dioxa-27λ^6-thia-1,14,15,16-tetraazahexacyclo[20.5.3.1^3,70.1^9,130.0^12,160.0^25,29]dotriaconta-3(32),4,6,9(31),10,12,14,22,24,29-decaen-8-yl]acetic acid]	23	–
4.86	Cc1ccc2cc1CN1Cc3cc(ccc3OS1(=O)=O)OCCCCn1nnc3c(C)c(ccc31)[C@@H]2CC(=O)O [Example 7b, [(8R)-4,31-dimethyl-27,27-dioxo-21,26-dioxa-27λ^6-thia-1,14,15,16-tetraazahexacyclo[20.5.3.1^3,70.1^9,130.0^12,160.0^25,29]dotriaconta-3(32),4,6,9(31),10,12,14,22,24,29-decaen-8-yl]acetic acid]	290	–
14.2	Cc1c2ccc3c1nnn3CCCCOc1ccc3c(c1)CN(Cc1cc(ccc1F)C2CC(=O)O)S(=O)(=O)O3 (stereo not drawn) [Example 14, [4-Fluoro-31-methyl-27,27-dioxo-21,26-dioxa-27λ^6-thia-1,14,15,16-tetraazahexacyclo[20.5.3.1^3,70.1^9,130.0^12,160.0^25,29]dotriaconta-3(32),4,6,9(31),10,12,14,22,24,29-decaen-8-yl]acetic acid]	582	–
